Results published in paper PMC6923176, “High-Throughput Screening of a 2-Keto-L-Gulonic Acid-Producing Gluconobacter oxydans Strain Based on Related Dehydrogenases” (Frontiers in Bioengineering and Biotechnology, 2019).

What was measured:
Assay in all cases: NADH consumption, A340
Type in all cases: biochemical
Settings in all cases: NAD(P)H-dependent reduction; co-substrate, pH and temperature of the Km series not given (unit definition: NADH, pH 7.0, 37 C)
[1] = target: T1, ANI-GLUD (2-KLG reductase, GLUD) (Aspergillus niger, UniProt A0A1D8RK43)
T1 construct: full length, synthetic gene without stop codon, BamHI/SalI in pET28a(+), His-tagged, E. coli BL21(DE3), Ni-NTA
T1 sequence (A0A1D8RK43 1-331): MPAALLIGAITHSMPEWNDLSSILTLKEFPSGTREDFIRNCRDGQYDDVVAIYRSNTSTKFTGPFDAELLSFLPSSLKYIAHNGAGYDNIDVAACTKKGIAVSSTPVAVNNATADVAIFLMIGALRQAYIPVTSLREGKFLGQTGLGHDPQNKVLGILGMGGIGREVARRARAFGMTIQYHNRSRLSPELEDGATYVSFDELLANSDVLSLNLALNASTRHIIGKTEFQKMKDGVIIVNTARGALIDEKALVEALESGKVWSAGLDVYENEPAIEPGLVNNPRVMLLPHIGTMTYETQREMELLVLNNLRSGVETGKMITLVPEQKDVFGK

[2] = target: T2, ANI-2KR (2-KLG reductase, 2kr) (Aspergillus niger, UniProt A2Q988)
T2 construct: gene An01g07030; full length, synthetic gene without stop codon, BamHI/SalI in pET28a(+), His-tagged, E. coli BL21(DE3), Ni-NTA
T2 sequence (A2Q988 1-339): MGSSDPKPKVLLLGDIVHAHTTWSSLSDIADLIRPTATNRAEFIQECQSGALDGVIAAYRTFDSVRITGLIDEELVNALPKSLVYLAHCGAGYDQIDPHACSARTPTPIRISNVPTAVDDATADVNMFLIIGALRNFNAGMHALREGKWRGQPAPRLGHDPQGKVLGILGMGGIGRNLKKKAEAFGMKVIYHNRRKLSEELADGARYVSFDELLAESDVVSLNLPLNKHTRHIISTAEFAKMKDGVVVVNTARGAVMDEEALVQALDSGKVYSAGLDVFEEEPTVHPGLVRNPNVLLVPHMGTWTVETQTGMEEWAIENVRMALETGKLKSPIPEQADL

[3] = target: T3, CFR-2KR (2-KLG reductase, 2kr) (Citrobacter freundii, UniProt A0A0P8I5D5)
T3 construct: gene ghrB; full length, His-tagged from pET28a(+), EcoRI/SalI, E. coli BL21(DE3), Ni-NTA
T3 sequence (A0A0P8I5D5 1-324): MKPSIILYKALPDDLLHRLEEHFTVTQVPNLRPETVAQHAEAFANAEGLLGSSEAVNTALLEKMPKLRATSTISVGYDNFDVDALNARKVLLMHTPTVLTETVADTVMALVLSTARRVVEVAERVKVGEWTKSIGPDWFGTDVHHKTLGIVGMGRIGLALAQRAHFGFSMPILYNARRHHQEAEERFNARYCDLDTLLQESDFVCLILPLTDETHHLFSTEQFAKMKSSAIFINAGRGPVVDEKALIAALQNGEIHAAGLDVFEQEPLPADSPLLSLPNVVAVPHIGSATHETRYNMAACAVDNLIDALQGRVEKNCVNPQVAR

Measured: Km

O=C(O)C(=O)[C@@H](O)[C@H](O)[C@@H](O)CO [2-KLG, 2-keto-L-gulonic acid]
Km and Vmax values for 2-KLG reductases: all assays above
